Key:
[1] = tested on: NALM6-luc tumors; assay: NALM6-luc tumor growth in NSG mice with daily RAD001 dosing; format: in vivo; details: daily oral dosing of RAD001 alone at 0.3, 1, 3, and 10 mg/kg
Protocol: FIG. 8 depicts tumor growth measurements of NALM6-luc cells with daily RAD001 dosing at 0.3, 1, 3, and 10 mg/kg (mpk) or vehicle dosing. Circles denote the vehicle; squares denote the 10 mg/kg dose of RAD001; triangles denote the 3 mg/kg dose of RAD001, inverted triangles denote the 1 mg/kg dose of RAD001; and diamonds denote the 0.3 mg/kg dose of RAD001.
The NALM6 human acute lymphoblastic leukemia (ALL) cell line was developed from the peripheral blood of a patient with relapsed ALL. The cells were then tagged with firefly luciferase. These suspension cells grow in RPMI supplemented with 10% heat inactivated fetal bovine serum.
6 week old NSG (NOD.Cg-Prkdc^scidIl2rg^tm1Wjl/SzJ) mice were received from the Jackson Laboratory (stock number 005557).
NALM6-luc cells were grown and expanded in vitro in RPMI supplemented with 10% heat inactivated fetal bovine serum. The cells were then transferred to a 15 ml conical tube and washed twice with cold sterile PBS. NALM6-luc cells were then counted and resuspended at a concentration of 10×10^6 cells per milliliter of PBS. The cells were placed on ice and immediately (within one hour) implanted in the mice. NALM6-luc cells were injected intravenously via the tail vein in a 100 μl volume, for a total of 1×10^6 cells per mouse. […]

[2] = tested on: huCAR19 CAR T cells; assay: In vivo proliferation of humanized CD19 CART cells with and without RAD001 dosing; parameters: species or system NSG mice
Protocol: Circles denote PBS; squares denote huCTL019; triangles denote huCTL019 with 3 mg/kg RAD001; inverted triangles denote huCTL019 with 0.3 mg/kg RAD001; diamonds denote huCTL019 with 0.03 mg/kg RAD001; and circles denote huCTL019 with 0.003 mg/kg RAD001.
Mice were administered 5×10^6 CAR T cells 7 days after tumor implantation. Cells were partially thawed in a 37 degree Celsius water bath and then completely thawed by the addition of 1 ml of cold sterile PBS to the tube containing the cells. The thawed cells were transferred to a 15 ml falcon tube and adjusted to a final volume of 10 mls with PBS. The cells were washed twice at 1000 rpm for 10 minutes each time and then counted on a hemocytometer. T cells were then resuspended at a concentration of 50×10^6 CAR T cells per ml of cold PBS and kept on ice until the mice were dosed. The mice were injected intravenously via the tail vein with 100 μl of the CAR T cells for a dose of 5×10^6 CAR T cells per mouse. Eight mice per group were treated either with 100 μl of PBS alone (PBS), or humanized CD19 CAR T cells.
(§1) A concentrated micro-emulsion of 50 mg equal to 1 mg RAD001 was formulated and then resuspended in D5W (dextrose 5% in water) at the time of dosing. Mice were orally dosed daily (via oral gavage) with 200 μl of the desired doses of RAD001.
Based on these doses, huCAR19 CAR T cells were dosed with and without RAD001 to determine the proliferative ability of these cells. The highest dose used was 3 mg/kg based on the levels of RAD001 in the blood 24 hours after dosing. As the concentration of RAD001 was above 10 nM 24 hours after the final dose of RAD001, several lower doses of RAD001 were used in the in vivo study with CAR T cells. The CAR T cells were dosed IV one day prior to the start of the daily oral RAD001 dosing. Mice were monitored via FACS for T cell expansion.

[3] = Pharmacokinetics of RAD001 in the blood of NSG mice with NALM6 tumors; format: in vivo
Protocol: Diamonds denote the […] dose of RAD001; squares denote the 1 mg/kg dose of RAD001; triangles denote the 3 mg/kg dose of RAD001; and x's denote the 10 mg/kg dose of RAD001.
as §1
Mice were dosed daily with RAD001 starting 7 days post tumor implantation. Dosing groups were as follows: 0.3 mg/kg, 1 mg/kg, 3 mg/kg, and 10 mg/kg. Mice were bled on days 0 and 14 following the first and last dose of RAD001, at the following time points for PK analysis: 15 minutes, 30 minutes, 1 hour, 2 hours, 4 hours, 8 hours, 12 hours, and 24 hours.

[4] = tested on: huCART19 cells; assay: CART proliferation in 4 day co-culture with Nalm-6 cells in the presence of RAD001; format: cell-based, human
Excerpt: A humanized, anti-human CD19 CAR (huCART19) lentiviral transfer vector was used to produce the genomic material packaged into VSVg pseudotyped lentiviral particles. The amino acid and nucleotide sequence of the humanized anti-human CD19 CAR (huCART19) is CAR 1, ID 104875 described in PCT publication, WO2014/153270, filed Mar. 15, 2014, and is designated SEQ ID NOs. 85 and 31 therein.
Lentiviral transfer vector DNA is mixed with the three packaging components VSVg env, gag/pol and rev in combination with lipofectamine reagent to transfect Lenti-X 293T cells. Medium is changed after 24 h and 30 h thereafter, the virus-containing media is collected, filtered and stored at −80° C. CARTs are generated by transduction of fresh or frozen naïve T cells obtained by negative magnetic selection of healthy donor blood or leukopak. T cells are activated by incubation with anti-CD3/anti-CD28 beads for 24 h, after which viral supernatant or concentrated virus (MOI=2 or 10, respectively) is added to the cultures. The modified T cells are allowed to expand for about 10 days. The percentage of cells transduced (expressing the CARs on the cell surface) and the level of CAR expression (relative fluorescence intensity, Geo Mean) are determined by flow cytometric analysis between days 7 and 9. The combination of slowing growth rate and T cell size approaching ˜350 fL determines the state for T cells to be cryopreserved for later analysis.
To evaluate the functionality of CARTs, the T cells are thawed and counted, and viability is assessed by Cellometer. The number of CAR-positive cells in each culture is normalized using non-transduced T cells (UTD). The impact of RAD001 on CARTs was tested in titrations with RAD001, starting at 50 nM. The target cell line used in all co-culture experiments is Nalm-6, a human pre-B cell acute lymphoblastic leukemia (ALL) cell line expressing CD19 and transduced to express luciferase.
For measuring the proliferation of CARTs, T cells are cultured with target cells at a ratio of 1:1. […] The number of T cells is assessed by flow cytometry using counting beads as reference.

With CO[C@H]1C[C@@H]2CC[C@@H](C)[C@@](O)(O2)C(=O)C(=O)N2CCCC[C@H]2C(=O)O[C@H]([C@H](C)C[C@@H]2CC[C@@H](OCCO)[C@H](OC)C2)CC(=O)[C@H](C)/C=C(\C)[C@@H](O)[C@@H](OC)C(=O)[C@H](C)C[C@H](C)/C=C/C=C/C=C/1C [RAD001, (1R,9S,12S,15R,16E,18R,19R,21R,23S,24E,26E,28E,30S,32S,35R)-1,18-dihydroxy-12-{(1R)-2-[(1S,3R,4R)-4-(2-hydroxyethoxy)-3-methoxycyclohexyl]-1-methylethyl}-19,30-dimethoxy-15,17,21,23,29,35-hexamethyl-11,36-dioxa-4-aza-tricyclo[30.3.1.04,9]hexatriaconta-16,24,26,28-tetraene-2,3,10,14,20-pentaone] the “growth of NALM6-luc tumors” value [1] was “did not have an impact”, the “CAR T cell proliferation in vivo” value ([2]; RAD001 0.003 mg/kg daily, huCTL019) was “enhancement in CAR T cell proliferation, above the normal level of huCAR19 proliferation” and the “enhanced proliferation of CD4+ CAR T cells compared with CD8+ CAR T cells” value ([2]; lowest doses of RAD001) was “more evident and prolonged”. The “proliferation of CD8+ CAR T cells” value ([2]; lowest doses of RAD001) was “enhanced proliferation can be seen at early time points”, the “proliferation of the CAR T cells in vivo” value ([2]; lowest doses of RAD001, daily oral) was “enhanced proliferation” and the “concentration of RAD001” value ([3]; 24 hours after the final dose of RAD001) was “above 10 nM”. For the same molecule, the concentration at 24 h ([3]; NSG, mouse, whole blood, day 0, 24 hours after dosing, lowest dose tested (0.3 mg/kg), oral) was > 10 nM, the “RAD001 concentration in the blood” value ([3]; day 14, 24 hours after dosing, lowest dose tested (0.3 mg/kg), oral) was “above 10 nm” and the “stability in the blood” value ([3]; tumor bearing mice) was “fairly stable”. For the same molecule, the “proliferation of huCART19 cells compared with no RAD001” value ([4]; 0.0032 and 0.016 nM RAD001, 4 day co-culture with Nalm-6) was “proliferation was higher than observed without the addition of RAD001”, the “expansion of huCART19 cells” value ([4]; less than 0.016 nM of RAD001, 4 day co-culture with Nalm-6, 1:1) was “expanded” and the “proliferation of CAR-expressing, transduced T cells” value ([4]; low doses of RAD001, cell culture system) was “enhanced”.

From US20200339651A1, “METHODS FOR B CELL PRECONDITIONING IN CAR THERAPY” (Novartis AG, priority 2014, published 2020)
